Measured values taken from US9725442B2, “Heterocyclic derivative having PGD2 receptor antagonist activity” (Shionogi & Co., Ltd., priority 2011, dated 2017).
pIC50, pKi: −log10 of the molar value. Like-named read-outs stand apart in the source and are kept apart here.

Columns and labels:
[1] = molecular target: CYP3A4 enzyme expressed in Escherichia coli (Homo sapiens (Human), UniProt P08684); assay: CYP3A4 fluorescent MBI test; type: in vitro ADME; conditions: pre-reaction time 0 or 30 minutes, substrate 7-BFC; read-out: CYP3A4 MBI, difference between IC50 values with and without preincubation
CYP3A4 enzyme expressed in Escherichia coli, sequence (P08684 whole entry): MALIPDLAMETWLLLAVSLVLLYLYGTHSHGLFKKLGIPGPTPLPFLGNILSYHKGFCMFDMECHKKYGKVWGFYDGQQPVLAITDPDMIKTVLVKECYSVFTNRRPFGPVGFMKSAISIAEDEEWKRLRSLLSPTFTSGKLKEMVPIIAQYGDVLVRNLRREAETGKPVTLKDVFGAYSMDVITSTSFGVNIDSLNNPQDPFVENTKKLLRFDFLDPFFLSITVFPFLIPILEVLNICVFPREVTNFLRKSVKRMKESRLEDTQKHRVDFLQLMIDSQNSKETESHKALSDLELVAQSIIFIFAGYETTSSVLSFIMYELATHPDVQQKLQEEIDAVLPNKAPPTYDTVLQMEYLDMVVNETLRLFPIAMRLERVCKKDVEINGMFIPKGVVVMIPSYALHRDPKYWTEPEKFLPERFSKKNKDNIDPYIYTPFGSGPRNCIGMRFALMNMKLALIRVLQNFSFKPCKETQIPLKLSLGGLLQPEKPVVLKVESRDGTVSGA
Method: The CYP3A4 fluorescent MBI test is a test of investigating enhancement of CYP3A4 inhibition of a compound by a metabolism reaction, and the test was performed using, as CYP3A4 enzyme expressed in Escherichia coli and employing, as an index, a reaction in which 7-benzyloxytrifluoromethylcoumarin (7-BFC) is debenzylated by the CYP3A4 enzyme to produce a metabolite, 7-hydroxytrifluoromethylcoumarin (HFC) emitting fluorescent light.
The reaction conditions were as follows: substrate, 5.6 μmol/L 7-BFC; pre-reaction time, 0 or 30 minutes; reaction time, 15 minutes; reaction temperature, 25° C. (room temperature); CYP3A4 content (expressed in Escherichia coli), at pre-reaction […], at reaction […] (at 10-fold dilution); concentration of a compound of the present, 0.625, 1.25, 2.5, 5, 10, 20 μmol/L (six points).
An enzyme in a K-Pi buffer (pH 7.4) and a compound solution of the present invention as a pre-reaction mixture were added to a 96-well plate at the composition of the pre-reaction, a part of it was transferred to another 96-well plate so that it was 1/10 diluted by a substrate in a K-Pi buffer, NADPH as a co-factor was added to initiate a reaction as an index (without preincubation) and, after a predetermined time of a reaction, acetonitrile/0.5 mol/L Tris(trishydroxyaminomethane)=4/1 (V/V) was added to stop the reaction. In addition, NADPH was added to a remaining preincubation solution to initiate a preincubation (with preincubation) and, after a predetermined time of a preincubation, a part was transferred to another plate so that it was 1/10 diluted with a substrate and a K-Pi buffer to initiate a reaction as an index. After a predetermined time of a reaction, acetonitrile/0.5 mol/L Tris(trishydroxyaminomethane)=4/1 (V/V) was added to stop the reaction. For the plate on which each index reaction had been performed, a fluorescent value of 7-HFC which is a metabolite was measured with a fluorescent plate reader. (Ex=420 nm, Em=535 nm).

[2] = molecular target: CYP2C9 (Homo sapiens (Human), UniProt P11712); assay: CYP inhibition test, tolbutamide methyl-hydroxylation; type: in vitro ADME; conditions: pooled human hepatic microsome, 100 μmol/L tolbutamide
CYP2C9, sequence (P11712 whole entry): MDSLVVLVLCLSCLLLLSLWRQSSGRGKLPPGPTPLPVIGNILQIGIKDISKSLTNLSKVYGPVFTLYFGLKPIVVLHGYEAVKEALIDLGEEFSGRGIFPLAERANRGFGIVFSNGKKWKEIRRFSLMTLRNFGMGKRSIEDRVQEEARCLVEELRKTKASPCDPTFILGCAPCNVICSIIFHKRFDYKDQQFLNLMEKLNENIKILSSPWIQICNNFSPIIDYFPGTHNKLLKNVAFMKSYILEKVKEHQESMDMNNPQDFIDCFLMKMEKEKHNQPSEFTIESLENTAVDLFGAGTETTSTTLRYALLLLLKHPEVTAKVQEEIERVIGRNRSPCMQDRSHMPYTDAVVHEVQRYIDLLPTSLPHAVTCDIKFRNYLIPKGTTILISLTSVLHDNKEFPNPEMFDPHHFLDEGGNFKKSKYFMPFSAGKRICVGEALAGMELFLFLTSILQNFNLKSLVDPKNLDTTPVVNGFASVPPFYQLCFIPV
Text: (§1) Using commercially available pooled human hepatic microsome, and employing, as markers, 7-ethoxyresorufin O-deethylation (CYP1A2), tolbutamide methyl-hydroxylation (CYP2C9), mephenyloin 4′-hydroxylation (CYP2C19), dextromethorphan O-demethylation (CYP2D6), and terfenedine hydroxylation as typical substrate metabolism reactions of human main five CYP enzyme forms (CYP1A2, 2C9, 2C19, 2D6, 3A4), an inhibitory degree of each metabolite production amount by a compound of the present compound was assessed.
(§2) The reaction conditions were as follows: substrate, 0.5 μmol/L ethoxyresorufin (CYP1A2), 100 μmol/L tolbutamide (CYP2C9), 50 μmol/L S-mephenyloin (CYP2C19), 5 μmol/L dextromethorphan (CYP2D6), 1 μmol/L terfenedine (CYP3A4); reaction time, 15 minutes; reaction temperature, 37° C.; enzyme, pooled human hepatic microsome 0.2 mg protein/mL; concentration of a compound of the present invention, 1, 5, 10, 20 μmol/L (four points).
(§3) Each five kinds of substrates, human hepatic microsome, or a compound of the present invention in 50 mM Hepes buffer as a reaction mixture was added to a 96-well plate at the composition as described above, NADPH, as a cofactor was added to initiate metabolism reactions as markers and. After the incubation at 37° C. for 15 minutes, a methanol/acetonitrile=1/1 (v/v) solution was added to stop the reaction. After the centrifugation at 3000 rpm for 15 minutes, resorufin (CYP1A2 metabolite) in the supernatant was quantified by a fluorescent multilabel counter and tolbutamide hydroxide (CYP2C9 metabolite), mephenyloin 4′ hydroxide (CYP2C19 metabolite), dextrorphan (CYP2D6 metabolite), and terfenadine alcohol (CYP3A4 metabolite) were quantified by LC/MS/MS.

[3] = molecular target: CYP3A4 (Homo sapiens (Human), UniProt P08684); assay: CYP inhibition test, terfenedine hydroxylation; type: in vitro ADME; conditions: pooled human hepatic microsome, 1 μmol/L terfenedine
CYP3A4, sequence (P08684 whole entry): as the sequence (P08684 whole entry) above
Text: as §1, §2, §3

[4] = Solubility test (1% DMSO addition, artificial intestinal juice pH 6.8); type: physicochemical; conditions: fassgf or other biorelevant, kinetic from dmso stock, artificial intestinal juice pH 6.8, 16 hours at 25° C.
Method: A 10 mmol/L solution of the compound of the present invention is prepared with DMSO, and 6 μL of the compound solution is added to 594 μL of an artificial intestinal juice (water and 118 mL of 0.2 mol/L NaOH reagent are added to 250 mL of 0.2 mol/L potassium dihydrogen phosphate reagent to reach 1000 mL) with a pH of 6.8. The mixture is left standing for 16 hours at 25° C., and the mixture is vacuum-filtered. The filtrate is two-fold diluted with methanol/water=1/1 (V/V), and the compound concentration in the filtrate is measured with HPLC or LC/MS/MS by the absolute calibration method.

[5] = molecular target: CYP2C19 (Homo sapiens (Human), UniProt P33261); assay: CYP inhibition test, mephenyloin 4'-hydroxylation; type: in vitro ADME; conditions: pooled human hepatic microsome, 50 μmol/L S-mephenyloin
CYP2C19, sequence (P33261 whole entry): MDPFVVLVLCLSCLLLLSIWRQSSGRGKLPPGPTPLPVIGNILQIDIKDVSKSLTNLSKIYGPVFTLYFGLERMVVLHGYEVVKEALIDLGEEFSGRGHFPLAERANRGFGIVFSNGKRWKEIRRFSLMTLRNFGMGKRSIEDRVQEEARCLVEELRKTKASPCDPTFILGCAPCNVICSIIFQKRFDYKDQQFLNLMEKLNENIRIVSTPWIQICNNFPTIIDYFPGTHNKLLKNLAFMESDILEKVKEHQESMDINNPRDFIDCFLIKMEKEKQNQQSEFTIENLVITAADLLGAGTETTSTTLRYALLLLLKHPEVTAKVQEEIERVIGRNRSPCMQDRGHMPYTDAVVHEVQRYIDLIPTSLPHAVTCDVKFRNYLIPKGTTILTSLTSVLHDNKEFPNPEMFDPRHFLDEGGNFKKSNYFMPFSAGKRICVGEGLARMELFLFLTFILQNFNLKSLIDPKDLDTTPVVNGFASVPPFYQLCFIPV
Text: as §1, §2, §3

[6] = molecular target: CYP2D6 (Homo sapiens (Human), UniProt P10635); assay: CYP inhibition test, dextromethorphan O-demethylation; type: in vitro ADME; conditions: pooled human hepatic microsome, 5 μmol/L dextromethorphan
CYP2D6, sequence (P10635 whole entry): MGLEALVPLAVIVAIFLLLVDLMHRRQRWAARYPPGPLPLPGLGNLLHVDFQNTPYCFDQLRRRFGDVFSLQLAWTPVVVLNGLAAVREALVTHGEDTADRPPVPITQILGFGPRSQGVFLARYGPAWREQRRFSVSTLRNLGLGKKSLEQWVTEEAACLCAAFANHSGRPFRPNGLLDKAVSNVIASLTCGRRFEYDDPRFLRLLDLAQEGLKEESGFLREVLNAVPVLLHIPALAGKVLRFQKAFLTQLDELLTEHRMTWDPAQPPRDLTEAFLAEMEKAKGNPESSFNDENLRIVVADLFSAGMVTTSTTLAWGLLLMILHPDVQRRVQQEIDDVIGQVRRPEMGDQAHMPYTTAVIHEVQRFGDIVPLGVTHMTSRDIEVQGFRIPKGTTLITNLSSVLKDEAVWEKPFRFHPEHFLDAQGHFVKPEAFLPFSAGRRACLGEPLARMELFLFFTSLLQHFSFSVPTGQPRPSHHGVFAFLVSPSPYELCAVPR
Text: as §1, §2, §3

[7] = Metabolism stability test; type: in vitro ADME; conditions: human liver microsomes, 30 minutes, 37° C., NADPH, 0.5 μmol/L of the compound
Method: Using a commercially available pooled human hepatic microsomes, a compound of the present invention was reacted for a constant time, a remaining rate was calculated by comparing a reacted sample and an unreacted sample, thereby, a degree of metabolism in liver was assessed.
A reaction was performed (oxidative reaction) at 37° C. for 0 minute or 30 minutes in the presence of 1 mmol/L NADPH in 0.2 mL of a buffer (50 mmol/L Tris-HCl pH 7.4, 150 mmol/L potassium chloride, 10 mmol/L magnesium chloride) containing 0.5 mg protein/mL of human liver microsomes. After the reaction, 50 μL of the reaction mixture was added to 100 μL of a methanol/acetonitrile=1/1 (v/v), mixed and centrifuged at 3000 rpm for 15 minutes. The compound of the present invention in the supernatant was quantified by LC/MS/MS, and a remaining amount of the compound of the present invention after the reaction was calculated, letting a compound amount at 0 minute reaction time to be 100%. Glucuronidation reaction was in the presence of 5 mM UDP-glucuronic acid in place of NADPH, followed by similar operations.

[8] = molecular target: Human DP1 receptor (Homo sapiens (Human), UniProt Q13258); assay: Human DP1 inhibitory activity in DP1-expressing cell (PGD2-induced cAMP); type: cell-based; conditions: category of cAMP IC50, human DP1 receptor expressing Jurkut cell
Human DP1 receptor, sequence (Q13258 whole entry): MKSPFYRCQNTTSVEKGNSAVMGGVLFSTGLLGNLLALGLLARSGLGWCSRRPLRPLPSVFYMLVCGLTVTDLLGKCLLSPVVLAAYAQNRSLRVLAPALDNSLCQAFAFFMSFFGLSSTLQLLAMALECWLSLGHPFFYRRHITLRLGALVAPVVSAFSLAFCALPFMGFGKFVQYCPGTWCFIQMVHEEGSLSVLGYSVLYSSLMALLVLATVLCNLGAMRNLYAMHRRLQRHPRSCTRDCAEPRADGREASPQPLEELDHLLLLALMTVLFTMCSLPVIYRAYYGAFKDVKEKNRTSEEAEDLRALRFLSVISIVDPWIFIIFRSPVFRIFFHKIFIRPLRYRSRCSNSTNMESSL
Method: Compounds were categorized as AA (cAMP is less than 100 nM) and A (cAMP is more than 100 nM and less than 5000 nM) as shown in Table 99 and 100.

[9] = molecular target: CYP1A2 (Homo sapiens (Human), UniProt P05177); assay: CYP inhibition test, 7-ethoxyresorufin O-deethylation; type: in vitro ADME; conditions: pooled human hepatic microsome, 0.5 μmol/L ethoxyresorufin
CYP1A2, sequence (P05177 whole entry): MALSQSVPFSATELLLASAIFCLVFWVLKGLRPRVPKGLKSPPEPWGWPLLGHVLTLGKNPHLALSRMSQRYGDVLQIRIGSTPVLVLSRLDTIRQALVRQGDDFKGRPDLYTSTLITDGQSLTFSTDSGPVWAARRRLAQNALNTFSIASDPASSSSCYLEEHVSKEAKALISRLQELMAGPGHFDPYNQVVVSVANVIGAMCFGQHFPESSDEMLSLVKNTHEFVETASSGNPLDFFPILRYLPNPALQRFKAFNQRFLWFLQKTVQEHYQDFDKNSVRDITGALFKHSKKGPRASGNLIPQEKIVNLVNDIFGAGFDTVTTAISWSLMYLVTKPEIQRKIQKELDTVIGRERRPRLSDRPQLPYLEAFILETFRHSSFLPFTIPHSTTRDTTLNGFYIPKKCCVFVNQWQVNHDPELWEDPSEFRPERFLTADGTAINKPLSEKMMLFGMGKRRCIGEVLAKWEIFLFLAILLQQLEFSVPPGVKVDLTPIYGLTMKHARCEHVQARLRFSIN
Text: as §1, §2, §3

[10] = molecular target: T1, CRTH2 (Homo sapiens (Human), UniProt Q9Y5Y4); assay: CRTH2 receptor binding inhibitory activity ([3H]-PGD2 displacement, membranes of CRTH2-expressing K562 cell); conditions: [3H]-PGD2 displacement, membrane of CRTH2-expressing K562 cell, read-out: Ki
T1 sequence (Q9Y5Y4 whole entry): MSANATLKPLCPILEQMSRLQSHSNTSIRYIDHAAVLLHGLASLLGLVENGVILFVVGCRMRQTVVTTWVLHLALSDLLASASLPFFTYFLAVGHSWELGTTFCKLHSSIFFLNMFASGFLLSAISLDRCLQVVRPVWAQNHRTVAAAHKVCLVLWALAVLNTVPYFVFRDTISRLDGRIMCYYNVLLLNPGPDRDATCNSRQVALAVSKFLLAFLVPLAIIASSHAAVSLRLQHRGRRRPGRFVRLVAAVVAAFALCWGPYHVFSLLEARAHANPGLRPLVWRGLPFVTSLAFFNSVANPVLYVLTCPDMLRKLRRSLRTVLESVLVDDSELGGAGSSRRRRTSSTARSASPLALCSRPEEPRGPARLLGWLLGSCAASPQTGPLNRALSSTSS
Outline: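 CRTH2-expressing K562 membranes (20 μg/well) in 50 mM Tris/HCl pH 7.4 with 10 mM MgCl2 were incubated with [3H]-PGD2 for 60 min at room temperature, then filtered.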

[11] = molecular target: T1, CRTH2; assay: CRTH2 inhibitory activity in CRTH2-expressing cells (PGD2-induced intracellular calcium increase, K562); type: cell-based; conditions: 200 nM PGD2, read-out: IC50, inhibition of intracellular calcium concentration increase induced by PGD2
Method: CRTH2 inhibitory activities of compounds were determined as inhibition activity of intra-cellular calcium concentration increase induced by PGD2 in CRTH2-expressing cells.
CRTH2-expressing K562 cells were suspended at concentration of 2×10^6 cells/ml in buffer (10 mM HEPES, pH 7.4, 0.1% Bovine serum albumin). Cells were incubated with […] (4 μM) for 30 min at room temperature. Cells were washed, resuspended and mixed with various concentration of compounds of the present invention. After 2 min, cells were treated with 200 nM of PGD2. Then intracellular calcium concentration was measured using intracellular ion analyzer (FDSS3000). Inhibition ratio was defined by comparing intracellular calcium concentration increase with and without compound, and IC50 for each compound was calculated from inhibitory curve.

[12] = CRTH2 receptor binding, categorized AAAA/AAA

Row | difference in IC50 with vs without preincubation [1] | pIC50 [2] | pIC50 [3] | solubility at 16 h [4] | pIC50 [5] | pIC50 [6] | remaining rate after reaction (result heading prints '% inhibition') [7] | pIC50 [8] | pIC50 [9] | pKi [10, 12] | pKi [10] | pIC50 [11] | Structure (SMILES)
1 | ≤ 3 µM | < 4.70 | < 4.70 | > 50 µM | < 4.70 | < 4.70 | 98.7% | 5.30 to 7.00 | < 4.70 | > 7.00 | 8.21 |  | CC(C)Oc1ccc(S(=O)(=O)N2C[C@H](n3nc(CC(=O)O)c4ccc(F)cc43)C[C@H]2CO)cc1 [Compound I-9]
2 |  | < 4.70 | < 4.70 | > 50 µM | < 4.70 | < 4.70 | 94.7% | 5.30 to 7.00 | < 4.70 | > 7.00 | 9.23 | 7.07 | C[C@@H]1CN(S(=O)(=O)c2ccc(Cl)cc2)C[C@@H]1n1nc(CC(=O)O)c2ccc(F)cc21 [Compound I-49]
3 | ≤ 3 µM |  |  |  |  |  | 99.2% | > 7.00 |  | 5.30 to 7.00 |  |  | CC(C)Oc1ccc(S(=O)(=O)N2CC[C@H](n3nc(CC(=O)O)c4ccc(F)cc43)[C@H](C)C2)cc1 [Compound I-75]
